In one experiment the target is Nitric oxide synthase 1 (Homo sapiens, UniProt P29475). Description: Inhibitory activity against Neuronal nitric oxide synthase.
Experiment [1] deals with Nitric oxide synthase, inducible (Homo sapiens, UniProt P35228). Description: Inhibitory activity against Inducible nitric oxide synthase.
The target of a further experiment is T1, Nitric oxide synthase 3 (Homo sapiens, UniProt P29474).
T1 sequence (P29474 whole entry): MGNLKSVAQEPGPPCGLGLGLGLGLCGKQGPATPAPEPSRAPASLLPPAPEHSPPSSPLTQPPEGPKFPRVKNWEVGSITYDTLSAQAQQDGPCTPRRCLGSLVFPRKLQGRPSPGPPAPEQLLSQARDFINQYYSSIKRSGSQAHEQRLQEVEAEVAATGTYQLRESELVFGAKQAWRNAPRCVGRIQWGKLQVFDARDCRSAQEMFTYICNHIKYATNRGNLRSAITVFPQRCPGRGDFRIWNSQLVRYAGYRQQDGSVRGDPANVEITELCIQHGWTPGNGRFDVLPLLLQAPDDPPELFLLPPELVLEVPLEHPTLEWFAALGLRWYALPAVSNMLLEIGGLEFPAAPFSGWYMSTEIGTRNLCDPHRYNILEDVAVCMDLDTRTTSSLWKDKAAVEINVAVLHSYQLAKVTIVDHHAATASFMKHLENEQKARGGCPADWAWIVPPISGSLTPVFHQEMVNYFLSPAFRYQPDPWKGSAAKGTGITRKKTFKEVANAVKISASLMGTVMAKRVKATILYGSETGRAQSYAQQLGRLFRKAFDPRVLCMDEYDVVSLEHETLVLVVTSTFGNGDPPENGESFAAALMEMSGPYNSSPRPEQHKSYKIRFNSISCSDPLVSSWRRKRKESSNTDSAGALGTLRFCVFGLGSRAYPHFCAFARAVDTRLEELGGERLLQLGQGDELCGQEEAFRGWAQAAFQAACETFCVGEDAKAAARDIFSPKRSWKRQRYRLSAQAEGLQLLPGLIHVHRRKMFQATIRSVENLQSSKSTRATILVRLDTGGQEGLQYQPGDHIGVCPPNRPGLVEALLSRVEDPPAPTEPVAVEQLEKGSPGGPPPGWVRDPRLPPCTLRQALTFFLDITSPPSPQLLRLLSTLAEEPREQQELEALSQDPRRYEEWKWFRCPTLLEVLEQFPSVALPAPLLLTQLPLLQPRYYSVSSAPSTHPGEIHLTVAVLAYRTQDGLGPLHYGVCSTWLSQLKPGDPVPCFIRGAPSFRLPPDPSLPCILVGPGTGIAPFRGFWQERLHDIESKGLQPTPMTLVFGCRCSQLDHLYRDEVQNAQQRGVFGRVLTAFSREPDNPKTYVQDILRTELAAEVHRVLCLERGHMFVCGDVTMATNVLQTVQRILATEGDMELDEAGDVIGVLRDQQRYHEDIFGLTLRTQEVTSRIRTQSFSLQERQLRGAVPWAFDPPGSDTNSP
The experiment in a line: Inhibitory activity against Endothelial nitric oxide synthase.

Experiment [2] has as its target T2, Nitric oxide synthase 3 (Homo sapiens) (UniProt P29474).
T2 sequence (whole entry): T1 sequence (P29474 whole entry)
Description: Ratio between Endothelial nitric oxide synthase and Inducible nitric oxide synthase.

The structures appear in SMILES notation.

Sequence of Nitric oxide synthase, inducible (P35228 whole entry): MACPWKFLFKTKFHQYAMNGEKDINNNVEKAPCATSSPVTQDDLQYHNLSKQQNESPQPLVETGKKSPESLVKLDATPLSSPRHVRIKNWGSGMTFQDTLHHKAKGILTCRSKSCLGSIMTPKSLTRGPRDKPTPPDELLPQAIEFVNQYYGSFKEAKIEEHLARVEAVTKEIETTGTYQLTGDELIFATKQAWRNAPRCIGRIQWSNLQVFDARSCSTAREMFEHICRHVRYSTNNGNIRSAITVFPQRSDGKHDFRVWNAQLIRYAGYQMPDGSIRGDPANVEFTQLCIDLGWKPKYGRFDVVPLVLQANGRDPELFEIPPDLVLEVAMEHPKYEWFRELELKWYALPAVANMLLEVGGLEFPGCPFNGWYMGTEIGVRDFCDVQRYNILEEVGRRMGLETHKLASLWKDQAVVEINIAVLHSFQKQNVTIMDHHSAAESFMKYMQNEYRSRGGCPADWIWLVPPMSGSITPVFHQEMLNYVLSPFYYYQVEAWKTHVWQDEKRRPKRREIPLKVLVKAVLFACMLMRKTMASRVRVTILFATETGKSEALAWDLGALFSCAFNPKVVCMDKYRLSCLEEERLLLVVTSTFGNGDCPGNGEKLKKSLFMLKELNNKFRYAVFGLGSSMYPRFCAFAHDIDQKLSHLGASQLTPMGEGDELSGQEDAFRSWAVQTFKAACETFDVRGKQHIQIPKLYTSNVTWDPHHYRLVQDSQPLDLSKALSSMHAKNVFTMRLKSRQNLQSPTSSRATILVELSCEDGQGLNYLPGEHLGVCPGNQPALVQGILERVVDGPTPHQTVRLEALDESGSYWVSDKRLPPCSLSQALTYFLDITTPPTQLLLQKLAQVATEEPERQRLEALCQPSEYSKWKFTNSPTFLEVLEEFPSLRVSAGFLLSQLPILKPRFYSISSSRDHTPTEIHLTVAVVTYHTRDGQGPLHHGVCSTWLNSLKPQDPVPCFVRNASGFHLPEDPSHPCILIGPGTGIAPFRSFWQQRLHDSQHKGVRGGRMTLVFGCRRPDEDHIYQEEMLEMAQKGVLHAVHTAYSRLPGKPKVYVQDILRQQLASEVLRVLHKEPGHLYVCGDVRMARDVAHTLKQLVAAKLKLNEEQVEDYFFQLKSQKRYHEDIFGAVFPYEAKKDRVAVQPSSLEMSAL
Sequence of Nitric oxide synthase 1 (P29475 whole entry): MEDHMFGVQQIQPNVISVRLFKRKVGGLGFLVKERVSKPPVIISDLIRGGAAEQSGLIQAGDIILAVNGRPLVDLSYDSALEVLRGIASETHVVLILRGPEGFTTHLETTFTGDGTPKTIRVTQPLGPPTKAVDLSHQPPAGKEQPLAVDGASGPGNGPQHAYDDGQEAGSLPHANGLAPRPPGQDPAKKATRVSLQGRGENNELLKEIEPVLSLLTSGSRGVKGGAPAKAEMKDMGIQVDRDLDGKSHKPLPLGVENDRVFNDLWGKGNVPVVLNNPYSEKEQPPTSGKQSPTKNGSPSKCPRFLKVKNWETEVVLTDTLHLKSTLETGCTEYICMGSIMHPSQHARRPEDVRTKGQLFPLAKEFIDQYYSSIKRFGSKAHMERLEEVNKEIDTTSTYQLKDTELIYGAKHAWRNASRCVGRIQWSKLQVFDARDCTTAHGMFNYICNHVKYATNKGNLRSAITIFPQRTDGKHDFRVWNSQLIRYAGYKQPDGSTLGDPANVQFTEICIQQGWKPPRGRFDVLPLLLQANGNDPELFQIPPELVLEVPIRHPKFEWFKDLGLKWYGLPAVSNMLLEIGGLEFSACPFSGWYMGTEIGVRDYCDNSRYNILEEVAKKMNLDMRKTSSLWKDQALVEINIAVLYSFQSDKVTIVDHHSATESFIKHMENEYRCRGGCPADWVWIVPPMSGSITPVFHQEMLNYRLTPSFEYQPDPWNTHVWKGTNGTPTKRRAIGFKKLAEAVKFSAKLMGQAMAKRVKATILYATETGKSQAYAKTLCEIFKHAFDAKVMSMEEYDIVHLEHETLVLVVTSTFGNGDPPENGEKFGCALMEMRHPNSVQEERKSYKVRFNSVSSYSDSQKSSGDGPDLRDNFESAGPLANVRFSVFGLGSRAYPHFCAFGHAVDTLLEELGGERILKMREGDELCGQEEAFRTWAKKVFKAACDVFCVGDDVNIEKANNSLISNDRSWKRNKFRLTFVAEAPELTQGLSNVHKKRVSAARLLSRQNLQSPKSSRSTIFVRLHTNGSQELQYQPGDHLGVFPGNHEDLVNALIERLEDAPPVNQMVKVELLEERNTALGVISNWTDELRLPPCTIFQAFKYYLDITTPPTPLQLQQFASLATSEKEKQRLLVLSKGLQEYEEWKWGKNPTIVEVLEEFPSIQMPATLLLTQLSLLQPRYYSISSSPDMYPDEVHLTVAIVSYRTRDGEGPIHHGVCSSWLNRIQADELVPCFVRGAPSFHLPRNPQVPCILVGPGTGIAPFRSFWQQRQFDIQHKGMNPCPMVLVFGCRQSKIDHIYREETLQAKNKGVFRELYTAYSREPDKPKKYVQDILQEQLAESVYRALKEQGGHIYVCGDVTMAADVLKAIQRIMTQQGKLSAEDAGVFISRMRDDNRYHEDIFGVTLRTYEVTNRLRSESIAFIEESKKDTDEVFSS

With `CC1CN=C(N)S1` (stereo unspecified), the IC50 (against Nitric oxide synthase 1; in experiment [1]; against Nitric oxide synthase 3) was more than 50 µM each time.

As for `CCC1CN=C(N)C1C` (stereo unspecified), in experiment [2], the Ratio is 65. The IC50 against Nitric oxide synthase 1 stood at 0.61 µM; in experiment [1], 0.93 µM; on Nitric oxide synthase 3, 60.6 µM.

With `NC1=NCCS1`, the Ratio in experiment [2] was found to be 1.2. Further, the IC50 against Nitric oxide synthase 1 was determined as 1.8 µM; in experiment [1] it was 0.9 µM; against Nitric oxide synthase 3, 1.1 µM.

In the case of `CCCC1CC(N)=NC1C` (stereo unspecified), the Ratio in experiment [2] amounted to 8. Further, the IC50 at Nitric oxide synthase 1 stood at 27 µM; in experiment [1], 13.1 µM; at Nitric oxide synthase 3, 104 µM.

In the case of `NC1=NCCC1`, in experiment [2], the Ratio is 1.1. The IC50 worked out at 9.6 µM against Nitric oxide synthase 1, 4.1 µM in experiment [1] and 4.6 µM at Nitric oxide synthase 3.

Turning to `CCCC1CN=C(N)C1` (stereo unspecified), the Ratio in experiment [2] was 1.4. Besides, the IC50 against Nitric oxide synthase 1 was found to be 53 µM; in experiment [1] it was 38.7 µM; against Nitric oxide synthase 3, 53 µM.

On to `NC1=NC2CCCC2C1` (stereo unspecified), for which the IC50 is 9.9 µM at Nitric oxide synthase 1, more than 50 µM in experiment [1] and more than 50 µM against Nitric oxide synthase 3.

As to `CCC1N=C(N)CC1C` (stereo unspecified), the Ratio in experiment [2] was determined as 26. In addition, the values for the IC50 (on Nitric oxide synthase 1; in experiment [1]; at Nitric oxide synthase 3) were 0.08 µM, 0.02 µM and 0.52 µM, respectively.

Take `CCC1CN=C(N)C1` (stereo unspecified): the Ratio in experiment [2] was determined as 27. The IC50 worked out at 2.6 µM on Nitric oxide synthase 1, 0.5 µM in experiment [1] and 14.5 µM on Nitric oxide synthase 3.

As for `N=C1SCC2CCCCN12` (stereo unspecified), the IC50 (at Nitric oxide synthase 1; in experiment [1]; on Nitric oxide synthase 3) was more than 50 µM throughout.

`NC1=NCC(c2ccccc2)C1` (stereo unspecified): the IC50 (against Nitric oxide synthase 1; in experiment [1]; at Nitric oxide synthase 3) was more than 50 µM in each case.

As for `CC1CCN=C1N` (stereo unspecified), the Ratio in experiment [2] was found to be 1.2. Besides, the IC50 turned out to be 0.9 µM against Nitric oxide synthase 1, 1.5 µM in experiment [1] and 1.8 µM against Nitric oxide synthase 3.

In the case of `CCC1CC(C)C(N)=N1` (stereo unspecified), in experiment [2], the Ratio was found to be 0.24. Further, the half-inhibitory concentration (IC50) against Nitric oxide synthase 1 was 2.4 µM; in experiment [1], 23 µM; against Nitric oxide synthase 3 it was 5.5 µM.

Take `CC1CCC(N)=N1` (stereo unspecified): the Ratio in experiment [2] was 1.4. Moreover, the IC50 against Nitric oxide synthase 1 is 3.1 µM; in experiment [1], 1.3 µM; against Nitric oxide synthase 3, 1.9 µM.

Take `N=C1CCC2CCCN12` (stereo unspecified): the IC50 on Nitric oxide synthase 1 is 9.6 µM; in experiment [1], more than 50 µM; at Nitric oxide synthase 3 it was 33 µM.

In the case of `CC1CN=C(N)C1` (stereo unspecified), the Ratio in experiment [2] was 13. For the same compound, the IC50 was determined as 0.8 µM on Nitric oxide synthase 1, 0.2 µM in experiment [1] and 2.6 µM on Nitric oxide synthase 3.

`CC1CN=C(N)C1C` (stereo unspecified): the Ratio in experiment [2] stood at 7.2. Moreover, the results for the IC50 (against Nitric oxide synthase 1; in experiment [1]; against Nitric oxide synthase 3) were 0.61 µM, 1.2 µM and 8.7 µM, respectively.

In the case of `CCCC1CC(N)=NC1CC` (stereo unspecified), the Ratio in experiment [2] came out at 22. Also, the IC50 was 17.3 µM against Nitric oxide synthase 1, 10.2 µM in experiment [1] and 227 µM on Nitric oxide synthase 3.

Turning to `CCCC1N=C(N)CC1C` (stereo unspecified), the Ratio in experiment [2] is 24. Further, the IC50 was 4.8 µM against Nitric oxide synthase 1, 2 µM in experiment [1] and 49 µM against Nitric oxide synthase 3.

For the compound `CC1CC(N)=NC1C` (stereo unspecified), the IC50 on Nitric oxide synthase 1 is 0.13 µM; in experiment [1], 0.3 µM; on Nitric oxide synthase 3, 0.6 µM.

For `N=C1SCC2CCCN12` (stereo unspecified), the values for the IC50 (on Nitric oxide synthase 1; in experiment [1]; against Nitric oxide synthase 3) were 14 µM, more than 50 µM and more than 50 µM, respectively.

Take `CC(C)C1CN=C(N)C1` (stereo unspecified): in experiment [2], the Ratio is 25. The IC50 against Nitric oxide synthase 1 was determined as 10.6 µM; in experiment [1], 3.5 µM; against Nitric oxide synthase 3 it was 87.8 µM.

As to `NC1=NC(c2ccccc2)CS1` (stereo unspecified), the IC50 (against Nitric oxide synthase 1; in experiment [1]; at Nitric oxide synthase 3) was more than 50 µM each time.

As to `CC(=N)NCCCC[C@H](N)C(=O)O` [L-NIL], the Ratio in experiment [2] turned out to be 3.7. The 50% inhibitory concentration (IC50) against Nitric oxide synthase 1 was 17.5 µM.

Turning to `N=C1CCC2CCCCN12` (stereo unspecified), the IC50 (against Nitric oxide synthase 1; in experiment [1]; on Nitric oxide synthase 3) was more than 50 µM in each case.

Consider `CCCCC1CSC(N)=N1` (stereo unspecified), for which the IC50 at Nitric oxide synthase 1 is 13.2 µM; in experiment [1], 5.2 µM; on Nitric oxide synthase 3, more than 50 µM.

Consider `CCC1CC(N)=NC1C` (stereo unspecified), for which the Ratio in experiment [2] was found to be 38. Further, the IC50 amounted to 0.14 µM against Nitric oxide synthase 1, 0.16 µM in experiment [1] and 6.3 µM against Nitric oxide synthase 3.

Usually IC50 stands for the concentration that gives 50% inhibition. Higher therefore signals a need for much substance.

(Values after ChEMBL document CHEMBL1137191, “Evaluation of pyrrolidin-2-imines and 1,3-thiazolidin-2-imines as inhibitors of nitric oxide synthase” (Bioorg Med Chem Lett, 2004).)
